Reference: ChEMBL document CHEMBL5528050, “Discovery of a Novel Series of Homo sapiens Caseinolytic Protease P Agonists for Colorectal Adenocarcinoma Treatment via ATF3-Dependent Integrated Stress Response” (J Med Chem, 2024)
The source made the active and inactive calls. The rule behind the calls is not given here.

Experiments:
HCT-116 [1] = test: Induction of apoptosis in human HCT-116 cells assessed as apoptotic rate at low dose measured after 48 hrs by annexin V-FITC/7-AAD based flow cytometry analysis relative to control; format: functional
Staphylococcus aureus [2] = test: Antibacterial activity against Staphylococcus aureus ATCC25923 assessed as reduction in bacterial growth; format: functional
[3] = Toxicity in BALB/c nude mouse assessed as effect on lung at 1.25 to 5 mg/kg, iv administered twice weekly and measured after 21 days by H and E staining based analysis; format: organism-based; conditions: in vivo, 504 h, dose 1.25-5 mg/kg, time 21 day
HCT-116 [4] = test: Upregulation of DDIT3 mRNA expression in human HCT-116 cells by RT-PCR analysis; format: functional, cell-based
[5] = Metabolic stability in rat liver microsomes assessed as intrinsic clearance at 1 uM measured upto 60 mins in presence of NADPH regenerating system by LC-MS/MS analysis; format: ADME, Microsome; conditions: read-out: CLH
[6] = AUC (0 to 12hrs) in Sprague-Dawley rat at 10 mg/kg, po by LC-MS/MS analysis; format: ADME, organism-based; conditions: in vivo
[7] = biological target: T1, ATP-dependent Clp protease proteolytic subunit (Staphylococcus aureus (strain NCTC 8325)) (UniProt Q2G036); test: Agonist activity at Staphylococcus aureus ClpP using Suc-LY-AMC as substrate at 10 to 100 uM measured every 5 mins for 1 hr by fluorescence based analysis; conditions: dose 10-100 µM
T1 sequence (whole entry): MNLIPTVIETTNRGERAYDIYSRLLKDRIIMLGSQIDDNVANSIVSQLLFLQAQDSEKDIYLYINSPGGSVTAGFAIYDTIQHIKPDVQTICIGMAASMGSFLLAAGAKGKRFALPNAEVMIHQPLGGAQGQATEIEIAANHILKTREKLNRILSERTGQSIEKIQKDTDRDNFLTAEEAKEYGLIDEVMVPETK

HCT-116 [8] = test: Induction of cell cycle arrest in human HCT-116 cells assessed as effect on number of cells at G1 phase at 0.5 to 2 uM measured after 48 hrs by PI staining based flow cytometry analysis; format: functional; conditions: dose 0.5-2 µM
[9] = Toxicity in BALB/c nude mouse assessed as effect on liver at 1.25 to 5 mg/kg, iv administered twice weekly and measured after 21 days by H and E staining based analysis; format: organism-based; conditions: in vivo, 504 h, dose 1.25-5 mg/kg, time 21 day
HCT-116 [10] = test: Antitumor activity against human HCT-116 cells xenografted in BALB/c nude mouse model assessed as reduction in SDHB expression at upto 5 mg/kg, iv administered twice weekly by Western blot analysis; format: functional, organism-based
[11] = Acute toxicity in BALB/c mouse assessed as survival at 50 mg/kg, iv administered as single dose measured upto 14 days; format: organism-based; conditions: in vivo, 336 h, time < 14 day
[12] = Toxicity in BALB/c nude mouse assessed as effect on heart at 1.25 to 5 mg/kg, iv administered twice weekly and measured after 21 days by H and E staining based analysis; format: organism-based; conditions: in vivo, 504 h, dose 1.25-5 mg/kg, time 21 day
HCT-116 [13] = test: Induction of apoptosis in human HCT-116 cells measured after 48 hrs by annexin V-FITC/7-AAD based flow cytometry analysis; format: functional, cell-based
HCT-116 [14] = test: Antitumor activity against human HCT-116 cells xenografted in BALB/c nude mouse model assessed as reduction in tumor weight at high dose administered as iv twice weekly and measured upto 21 days; format: functional; conditions: time <= 21 day
HCT-15 = test: cells; conditions: Homo sapiens, HCT-15, 72 h
Description: Antiproliferative activity against human HCT-15 cells assessed as inhibition of cell growth measured after 72 hrs by CCK-8 method

HCT-116 [15] = test: Induction of cell cycle arrest in human HCT-116 cells assessed as increase in number of cells at G2 phase at high dose measured after 48 hrs by PI staining based flow cytometry analysis; format: functional
[16] = Toxicity in BALB/c nude mouse assessed as effect on kidney at 1.25 to 5 mg/kg, iv administered twice weekly and measured after 21 days by H and E staining based analysis; format: organism-based; conditions: in vivo, 504 h, dose 1.25-5 mg/kg, time 21 day
[17] = Oral bioavailability in Sprague-Dawley rat at 10 mg/kg by LC-MS/MS analysis; format: ADME, organism-based; conditions: in vivo
[18] = biological target: ATP-dependent Clp protease proteolytic subunit (Escherichia coli (strain K12)) (UniProt P0A6G7); test: Agonist activity at Escherichia coli ClpP using Suc-LY-AMC as substrate at 10 to 100 uM measured every 5 mins for 1 hr by fluorescence based analysis; conditions: dose 10-100 µM
ATP-dependent Clp protease proteolytic subunit (Escherichia coli (strain K12)), sequence (P0A6G7 whole entry): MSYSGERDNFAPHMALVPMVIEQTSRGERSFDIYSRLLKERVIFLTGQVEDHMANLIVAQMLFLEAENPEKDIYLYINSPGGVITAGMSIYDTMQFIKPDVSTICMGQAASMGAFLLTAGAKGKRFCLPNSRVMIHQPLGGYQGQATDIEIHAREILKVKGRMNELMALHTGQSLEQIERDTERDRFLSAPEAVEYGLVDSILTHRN

[19] = Half life in Sprague-Dawley rat at 10 mg/kg, iv by LC-MS/MS analysis; format: ADME, organism-based; conditions: in vivo
[20] = Antiproliferative activity against HEK293 cells assessed as inhibition of cell growth measured after 72 hrs by CCK-8 method; format: toxicity, cell-based; conditions: human
[21] = Acute toxicity in BALB/c mouse assessed as effect on spleen at 50 mg/kg, iv administered as single dose measured upto 14 days by H and E staining based analysis; format: organism-based; conditions: in vivo, 336 h, time < 14 day
[22] = Tmax in Sprague-Dawley rat at 10 mg/kg, po by LC-MS/MS analysis; format: ADME, organism-based; conditions: in vivo
[23] = Acute toxicity in BALB/c mouse assessed as effect on heart at 50 mg/kg, iv administered as single dose measured upto 14 days by H and E staining based analysis; format: organism-based; conditions: in vivo, 336 h, time < 14 day
[24] = Cmax in Sprague-Dawley rat at 10 mg/kg, po by LC-MS/MS analysis; format: ADME, organism-based; conditions: in vivo
[25] = Toxicity in BALB/c nude mouse assessed as effect on spleen at 1.25 to 5 mg/kg, iv administered twice weekly and measured after 21 days by H and E staining based analysis; format: organism-based; conditions: in vivo, 504 h, dose 1.25-5 mg/kg, time 21 day
Escherichia coli = test: Antibacterial activity against Escherichia coli ATCC25922 assessed as reduction in bacterial growth; format: functional
[26] = Acute toxicity in BALB/c mouse assessed as effect on kidney at 50 mg/kg, iv administered as single dose measured upto 14 days by H and E staining based analysis; format: organism-based; conditions: in vivo, 336 h, time < 14 day
[27] = MRT (0 to 12hrs) in Sprague-Dawley rat at 10 mg/kg, po by LC-MS/MS analysis; format: ADME, organism-based; conditions: in vivo
SW-620 = test: cells; conditions: Homo sapiens, SW-620, 72 h
Description: Antiproliferative activity against human SW-620 cells assessed as inhibition of cell growth measured after 72 hrs by CCK-8 method

Staphylococcus aureus [28] = test: Antibacterial activity against Staphylococcus aureus ATCC29213 assessed as reduction in bacterial growth; format: functional
HCT-116 [29] = test: Effect on JUN expression in ClpP knockdown human HCT-116 cells at 2 uM measured after 48 hrs by Western blot analysis; format: functional, cell-based
[30] = Antiproliferative activity against human L02 cells assessed as inhibition of cell growth measured after 72 hrs by CCK-8 method; format: toxicity, cell-based
HCT-116 [31] = test: Antitumor activity against human HCT-116 cells xenografted in BALB/c nude mouse model assessed as increase in Bax expression at upto 5 mg/kg, iv administered twice weekly by Western blot analysis; format: functional, organism-based
HCT-116 [32] = test: Upregulation of ATF3 mRNA expression in human HCT-116 cells by RT-PCR analysis; format: functional, cell-based
HCT-116 [33] = test: Inhibition of mitochondrial function in human HCT-116 cells assessed as reduction in ATP production; format: functional, cell-based
HCT-116 [34] = test: Antitumor activity against human HCT-116 cells xenografted in BALB/c nude mouse model assessed as reduction in tumor volume at 5 mg/kg,iv and measured upto 21 days relative to control; format: functional; set-up: scale not given: the % may be the effect or the level left; conditions: time <= 21 day

For `N#Cc1cccc(CN2CCC=C(C(=O)NCc3ccc(C(F)(F)F)cc3)C2)c1`, the Activity (HCT-116 [1]) was 22%, the MIC (Staphylococcus aureus [2]) was > 128 µg/mL and the Activity [3] was “Non-Toxic”. For the same molecule, the Activity (HCT-116 [4]) was “Active”, the CLint scaled at 1 µM [5] was 305 mL/min/kg and the AUC(0-t) [6] was 777 ng·h/mL. For the same molecule, the Activity [7] was “inactive”, the Activity (HCT-116 [8]) was “inactive” and the Activity [9] was “Non-Toxic”. The Activity (HCT-116 [10]) was “Active”, the Activity [11] was “Non-Toxic” and the Activity [12] was “Non-Toxic”. For the same molecule, the Activity (HCT-116 [13]) was “Dose-Dependent Effect”, the Activity (HCT-116 [14]) was 300 mg and the IC50 (HCT-15) was 3.5 µM. For the same molecule, the Activity (HCT-116 [15]) was ~40%, the Activity [16] was “Non-Toxic” and the bioavailability [17] was 54.2%. For the same molecule, the Activity [18] was “inactive”, the half-life [19] was 4.8 h and the IC50 at 72 h [20] was 78.1 µM. The Activity [21] was “Non-Toxic”, the Tmax [22] was 5.4 h and the Activity [23] was “Non-Toxic”. For the same molecule, the Cmax [24] was 137 ng/mL, the Activity [25] was “Non-Toxic” and the MIC (Escherichia coli) was > 128 µg/mL. For the same molecule, the Activity [26] was “Non-Toxic”, the MRT last [27] was 6.7 h and the IC50 (SW-620) was 1.5 µM. For the same molecule, the MIC (Staphylococcus aureus [28]) was > 128 µg/mL, the Activity (HCT-116 [29]) was “inactive” and the IC50 at 72 h [30] was 64.1 µM. For the same molecule, the Activity (HCT-116 [31]) was “Active”, the Activity (HCT-116 [32]) was “Active” and the inhibition (HCT-116 [33]) was “Active”. It also gave an Activity (HCT-116 [34]) of 83.6%.
